Laboratory results published in patent US20230241226A1, “COMPOUNDS FOR TARGETED DEGRADATION OF CARRIER PROTEINS AND USES THEREOF” (CeMM - Forschungszentrum für Molekulare Medizin GmbH, priority 2019, published 2023).

Columns and labels:
Assay type in all cases: cell-based
[1] = molecular target: T1, dTAG-HA SLC35B2 (Homo sapiens, UniProt Q8TB61+Q96SW2); test: Targeted degradation of dTAG-tagged SLC35B2 (western blot); details: HAP1, 0.5 µM, 24, 48 or 72 hours
T1 construct: expressed in transfected cells
T1 sequence (Q8TB61 with tags, fused parts or gaps): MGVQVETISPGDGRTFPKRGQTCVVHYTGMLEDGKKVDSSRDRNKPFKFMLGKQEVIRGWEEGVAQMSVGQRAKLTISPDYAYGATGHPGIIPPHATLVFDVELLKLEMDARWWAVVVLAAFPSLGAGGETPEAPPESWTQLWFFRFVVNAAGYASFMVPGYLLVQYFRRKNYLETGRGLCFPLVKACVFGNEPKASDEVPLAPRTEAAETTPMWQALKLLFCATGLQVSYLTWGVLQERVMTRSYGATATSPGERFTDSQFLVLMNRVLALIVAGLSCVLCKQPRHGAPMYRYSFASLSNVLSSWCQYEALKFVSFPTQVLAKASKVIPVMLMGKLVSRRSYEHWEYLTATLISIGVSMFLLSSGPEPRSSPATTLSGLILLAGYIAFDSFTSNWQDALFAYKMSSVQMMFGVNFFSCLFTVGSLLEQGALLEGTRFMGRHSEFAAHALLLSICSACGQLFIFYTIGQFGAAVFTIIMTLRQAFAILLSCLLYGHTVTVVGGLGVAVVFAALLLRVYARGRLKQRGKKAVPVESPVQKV
T1 sequence (Q96SW2 whole entry): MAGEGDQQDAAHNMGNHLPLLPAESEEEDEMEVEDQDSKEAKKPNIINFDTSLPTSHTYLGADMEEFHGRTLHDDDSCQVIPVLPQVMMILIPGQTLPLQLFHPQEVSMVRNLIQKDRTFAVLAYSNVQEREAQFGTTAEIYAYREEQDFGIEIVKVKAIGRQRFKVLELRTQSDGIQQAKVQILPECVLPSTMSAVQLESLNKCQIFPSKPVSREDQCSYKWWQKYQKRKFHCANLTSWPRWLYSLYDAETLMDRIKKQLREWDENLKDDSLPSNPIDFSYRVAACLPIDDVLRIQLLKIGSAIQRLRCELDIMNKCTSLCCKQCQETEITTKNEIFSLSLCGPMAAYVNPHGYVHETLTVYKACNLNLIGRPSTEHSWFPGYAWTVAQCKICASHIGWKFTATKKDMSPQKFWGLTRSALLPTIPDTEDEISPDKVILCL
T1 sequence (Q16531 whole entry partner): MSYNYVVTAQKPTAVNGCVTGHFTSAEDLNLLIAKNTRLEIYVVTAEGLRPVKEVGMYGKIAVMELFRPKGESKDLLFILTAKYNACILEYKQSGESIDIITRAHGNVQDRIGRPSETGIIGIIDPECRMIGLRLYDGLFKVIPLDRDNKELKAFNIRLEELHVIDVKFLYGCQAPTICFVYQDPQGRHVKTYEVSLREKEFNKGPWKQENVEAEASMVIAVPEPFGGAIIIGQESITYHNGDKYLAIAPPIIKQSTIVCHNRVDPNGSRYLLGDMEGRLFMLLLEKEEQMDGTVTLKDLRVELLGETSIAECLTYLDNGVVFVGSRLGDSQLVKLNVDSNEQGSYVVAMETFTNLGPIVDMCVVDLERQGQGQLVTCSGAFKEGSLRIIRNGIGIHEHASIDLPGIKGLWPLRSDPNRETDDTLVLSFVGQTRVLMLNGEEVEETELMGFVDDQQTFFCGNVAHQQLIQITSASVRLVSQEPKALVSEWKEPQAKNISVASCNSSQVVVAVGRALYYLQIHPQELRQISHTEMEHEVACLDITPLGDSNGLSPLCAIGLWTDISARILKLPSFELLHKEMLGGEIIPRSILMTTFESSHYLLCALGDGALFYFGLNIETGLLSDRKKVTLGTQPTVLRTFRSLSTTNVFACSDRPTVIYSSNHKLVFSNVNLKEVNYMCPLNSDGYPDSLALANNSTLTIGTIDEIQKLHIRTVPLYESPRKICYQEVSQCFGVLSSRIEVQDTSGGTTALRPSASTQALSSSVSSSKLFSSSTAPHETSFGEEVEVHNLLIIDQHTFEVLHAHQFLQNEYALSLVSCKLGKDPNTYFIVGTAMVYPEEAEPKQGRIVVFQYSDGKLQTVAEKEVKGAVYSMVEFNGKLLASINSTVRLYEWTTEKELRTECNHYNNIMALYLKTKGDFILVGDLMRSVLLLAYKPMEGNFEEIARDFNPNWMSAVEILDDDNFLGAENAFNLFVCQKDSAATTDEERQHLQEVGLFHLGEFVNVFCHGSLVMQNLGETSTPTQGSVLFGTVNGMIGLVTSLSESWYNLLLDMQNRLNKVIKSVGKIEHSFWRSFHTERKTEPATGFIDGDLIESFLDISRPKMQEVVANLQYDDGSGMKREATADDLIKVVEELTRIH
Protocol: (§1) (C)HAP1 cells expressing dTAG-HA SLC1A5, 2A3, 30A9, 35B2, MTCH2, and 33A1 were treated for 24 hours with 0.5 µM of dTAG7 or dTAG13, as indicated. HAP1 cells expressing dTAG-HA SLC2A1 and 16A1 were treated for 24 hrs with 0.5 µM of dTAG7. HAP1 cell lines expressing dTAG-HA SLC39A7, dTAG-HA SLC4A4, and SLC7A3-dTAG-HA were treated for 48 hrs with 0.5 µM of dTAG13.
(§2) SLC1A5, SLC2A1, SLC2A3, SLC16A1, SLC38A1, SLC38A2 were obtained as gateway-compatible pENTR/pDONR vectors from the Harvard PlasmID Repository. SLC39A7 was obtained from Dharmacon, GE Healthcare. The following vectors were synthesized by Genescript: SLC4A4, SLC7A3, SLC38A9, SLC25A1, SLC9A1, SLC9A2, SLC9A3, SLC9A4, SLC9A5, SLC9A6, SLC9A7, SLC9A8, and SLC9B2. […]
(§3) For immunoblotting, whole cell extracts were prepared using RIPA lysis buffer (25 mM Tris/HCl pH 7.6, 150 mM NaCl, 1% NP-40, 1% sodium deoxycholate, 0.1% SDS, EDTA-free protease inhibitor (Roche) and phosphatase inhibitors 2+3 (Sigma- Aldrich)). […] Protein extracts were quantified and normalized using the BCA assay (Thermo Scientific). […]
(§4) SLCs were ectopically expressed as fusions to a mutated FKBP domain, also known as the dTAG system. […]

[2] = molecular target: T2, dTAG-HA SLC30A9 (Homo sapiens, UniProt Q6PML9+Q96SW2); test: Targeted degradation of dTAG-tagged SLC30A9 (western blot); details: HAP1, 0.5 µM
T2 construct: expressed in transfected cells
T2 sequence (Q6PML9 with tags, fused parts or gaps): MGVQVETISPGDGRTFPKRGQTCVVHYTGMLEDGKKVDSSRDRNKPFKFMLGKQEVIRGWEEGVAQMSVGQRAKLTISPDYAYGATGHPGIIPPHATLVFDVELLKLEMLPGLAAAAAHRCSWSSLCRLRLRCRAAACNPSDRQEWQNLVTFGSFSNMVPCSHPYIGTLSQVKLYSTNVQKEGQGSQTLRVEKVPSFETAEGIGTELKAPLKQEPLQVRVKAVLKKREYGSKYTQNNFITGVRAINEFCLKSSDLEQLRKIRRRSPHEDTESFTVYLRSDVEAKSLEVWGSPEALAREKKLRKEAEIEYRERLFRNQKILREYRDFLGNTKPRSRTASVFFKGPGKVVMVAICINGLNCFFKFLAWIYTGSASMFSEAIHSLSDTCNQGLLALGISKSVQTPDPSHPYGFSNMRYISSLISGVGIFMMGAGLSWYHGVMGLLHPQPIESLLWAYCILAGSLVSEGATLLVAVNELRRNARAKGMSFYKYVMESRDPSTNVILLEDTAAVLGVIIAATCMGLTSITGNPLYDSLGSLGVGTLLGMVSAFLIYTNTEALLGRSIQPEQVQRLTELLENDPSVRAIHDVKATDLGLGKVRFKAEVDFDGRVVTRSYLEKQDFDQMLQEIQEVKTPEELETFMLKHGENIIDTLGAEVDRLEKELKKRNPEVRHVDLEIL
T2 sequence (Q96SW2 whole entry): as the sequence (Q96SW2 whole entry) above
T2 sequence (Q16531 whole entry partner): as the sequence (Q16531 whole entry partner) above
Protocol: as §1, §2, §3, §4

[3] = molecular target: T3, dTAG-HA SLC38A1 (Homo sapiens, UniProt Q96SW2+Q9H2H9); test: Targeted degradation of dTAG-tagged SLC38A1 (western blot)
T3 construct: expressed in transfected cells
T3 sequence (Q16531 whole entry): as the sequence (Q16531 whole entry partner) above
T3 sequence (Q9H2H9 other isoform, or with tags, fused parts or gaps): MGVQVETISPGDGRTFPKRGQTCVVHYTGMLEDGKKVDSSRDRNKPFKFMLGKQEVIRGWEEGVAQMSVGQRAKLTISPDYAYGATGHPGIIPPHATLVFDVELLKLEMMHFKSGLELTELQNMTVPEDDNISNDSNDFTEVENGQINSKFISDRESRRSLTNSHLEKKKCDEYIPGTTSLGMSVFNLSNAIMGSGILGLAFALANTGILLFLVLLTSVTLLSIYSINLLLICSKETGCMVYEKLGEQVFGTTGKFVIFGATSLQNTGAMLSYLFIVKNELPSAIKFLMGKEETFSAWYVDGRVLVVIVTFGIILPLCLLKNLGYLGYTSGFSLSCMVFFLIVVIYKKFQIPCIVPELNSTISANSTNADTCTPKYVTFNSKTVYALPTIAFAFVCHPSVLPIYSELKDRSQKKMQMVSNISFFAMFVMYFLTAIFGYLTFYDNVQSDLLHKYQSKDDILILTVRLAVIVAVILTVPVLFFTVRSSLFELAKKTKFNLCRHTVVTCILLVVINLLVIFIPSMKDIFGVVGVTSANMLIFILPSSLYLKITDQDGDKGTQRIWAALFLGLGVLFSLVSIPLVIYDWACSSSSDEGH
T3 sequence (Q96SW2 whole entry): as the sequence (Q96SW2 whole entry) above
Protocol: (A) HAP1 cells expressing dTAG-HA SLC38A9, 38A2, or 38A1 were treated with 0.5 µM dTAG13 for 16, 24 or 48 hours.
(§5) SLC1A5, SLC2A1, SLC2A3, SLC16A1, SLC38A1, SLC38A2 were obtained as gateway-compatible pENTR/pDONR vectors from the Harvard PlasmID Repository. SLC39A7 was obtained from Dharmacon, GE Healthcare. The following vectors were synthesized by Genescript: SLC4A4, SLC7A3, SLC38A9, SLC25A1, SLC9A1, SLC9A2, SLC9A3, SLC9A4, SLC9A5, SLC9A6, SLC9A7, SLC9A8, and SLC9B2. SLC30A9, SLC33A1, SLC35B2, SLC25A26, and MTCH2 were a gift from the RESOLUTE consortium. cDNAs were transferred into gateway-compatible lentiviral expression vectors: pLX305 dTAG vectors (Addgene #91797/8) or pRRL Strep-HA (described previously43, EF1a promotor driven expression) using LR recombination (ThermoFisher Scientific). […]
as §3
SLCs were ectopically expressed as fusions to a mutated FKBP domain, also known as the dTAG system. […] Each of the tested SLCs was stably expressed in HAP1 cells, and subcellular localization was assessed by immunofluorescence microscopy (FIG. 1B). […]

[4] = molecular target: T4, Strep/HA SLC9A5 (Homo sapiens, UniProt Q14940); test: Selectivity across SLC9 family: degradation of exogenous Strep/HA SLC9A5; details: HAP1; 250 or 750 nM; 16 hours
T4 construct: expressed in transfected cells; host or cells: HAP1 (lentiviral, pRRL Strep-HA; cDNA synthesized by Genescript)
Protocol: (§6) (E) Selectivity of d9A1-2 was tested across HAP1 cell lines expressing Strep/HASLC9A1, 9A4, 9A5, 9A8, 9A2, 9B2, 9A6, 9A9, and 9A3. Cells were treated with varying concentrations of d9A1-2 for 16 hours, after which degradation of the exogenous SLCs was monitored.
as §5, §3

[5] = molecular target: T5, Strep/HA SLC9A2 (Homo sapiens, UniProt Q9UBY0); test: Selectivity across SLC9 family: degradation of exogenous Strep/HA SLC9A2; details: HAP1; 250 or 750 nM; 16 hours
T5 construct: expressed in transfected cells; host or cells: HAP1 (lentiviral, pRRL Strep-HA; cDNA synthesized by Genescript)
Protocol: as §6, §5, §3

[6] = molecular target: T6, Strep/HA SLC9A1 (Homo sapiens, UniProt P19634); test: Selectivity across SLC9 family: degradation of exogenous Strep/HA SLC9A1; details: HAP1; 250 or 750 nM; 16 hours
T6 construct: expressed in transfected cells; host or cells: HAP1 (lentiviral, pRRL Strep-HA; cDNA synthesized by Genescript)
T6 sequence (P19634 whole entry): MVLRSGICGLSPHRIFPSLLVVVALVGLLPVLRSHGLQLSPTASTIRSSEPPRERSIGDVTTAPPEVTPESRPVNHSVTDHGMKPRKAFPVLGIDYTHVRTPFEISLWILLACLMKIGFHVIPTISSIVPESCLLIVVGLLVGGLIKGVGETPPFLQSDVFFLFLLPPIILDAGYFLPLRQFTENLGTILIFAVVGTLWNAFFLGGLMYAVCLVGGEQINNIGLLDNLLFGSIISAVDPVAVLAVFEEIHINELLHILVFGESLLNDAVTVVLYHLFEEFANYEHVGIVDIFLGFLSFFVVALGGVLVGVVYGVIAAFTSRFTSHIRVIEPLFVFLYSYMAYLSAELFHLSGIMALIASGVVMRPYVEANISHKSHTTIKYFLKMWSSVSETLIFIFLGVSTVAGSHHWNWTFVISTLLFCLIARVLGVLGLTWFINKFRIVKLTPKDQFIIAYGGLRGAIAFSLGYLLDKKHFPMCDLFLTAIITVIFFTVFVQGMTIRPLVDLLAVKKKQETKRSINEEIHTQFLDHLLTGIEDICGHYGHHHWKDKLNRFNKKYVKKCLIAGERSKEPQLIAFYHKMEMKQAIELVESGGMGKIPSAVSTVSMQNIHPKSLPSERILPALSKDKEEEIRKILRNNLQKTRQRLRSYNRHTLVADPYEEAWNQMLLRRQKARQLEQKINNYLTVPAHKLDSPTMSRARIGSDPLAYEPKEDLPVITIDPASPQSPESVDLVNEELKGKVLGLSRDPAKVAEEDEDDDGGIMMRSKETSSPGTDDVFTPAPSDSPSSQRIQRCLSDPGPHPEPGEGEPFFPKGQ
Protocol: as §6, §5, §3

[7] = molecular target: T7, Strep/HA SLC9A6 (Homo sapiens, UniProt Q92581); test: Selectivity across SLC9 family: degradation of exogenous Strep/HA SLC9A6; details: HAP1; 250 or 750 nM; 16 hours
T7 construct: expressed in transfected cells; host or cells: HAP1 (lentiviral, pRRL Strep-HA; cDNA synthesized by Genescript)
T7 sequence (Q92581 1-669 isoform Q92581-1): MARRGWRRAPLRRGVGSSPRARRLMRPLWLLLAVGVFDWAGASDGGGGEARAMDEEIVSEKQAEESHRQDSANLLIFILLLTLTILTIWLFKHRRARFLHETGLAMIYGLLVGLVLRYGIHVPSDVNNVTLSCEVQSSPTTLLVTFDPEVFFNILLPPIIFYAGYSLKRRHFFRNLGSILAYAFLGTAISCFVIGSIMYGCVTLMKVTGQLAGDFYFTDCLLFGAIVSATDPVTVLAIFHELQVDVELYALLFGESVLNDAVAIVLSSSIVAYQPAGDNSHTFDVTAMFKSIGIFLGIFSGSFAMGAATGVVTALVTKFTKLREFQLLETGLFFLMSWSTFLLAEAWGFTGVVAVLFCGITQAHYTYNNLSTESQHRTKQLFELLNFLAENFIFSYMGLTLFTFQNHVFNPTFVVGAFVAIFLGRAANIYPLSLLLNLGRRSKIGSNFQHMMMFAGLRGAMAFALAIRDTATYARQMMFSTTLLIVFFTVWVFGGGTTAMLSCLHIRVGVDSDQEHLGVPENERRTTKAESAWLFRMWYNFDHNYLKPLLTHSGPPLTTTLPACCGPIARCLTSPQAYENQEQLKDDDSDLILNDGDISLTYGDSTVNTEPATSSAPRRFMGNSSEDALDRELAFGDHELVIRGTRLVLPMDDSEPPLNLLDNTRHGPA
Protocol: as §6, §5, §3

CC[C@H](C(=O)N1CCCC[C@H]1C(=O)O[C@H](CCc1ccc(OC)c(OC)c1)c1ccccc1OCC(=O)NCCCOCCOCCOCCCNC(=O)COc1cccc2c1C(=O)N(C1CCC(=O)NC1=O)C2=O)c1cc(OC)c(OC)c(OC)c1 (some centres unmarked) [dTAG7]
reversibility of degradation of the target SLC [1]: reversible degradation
initiation of degradation (time course) [2]: ≤ 6 h

CC[C@H](C(=O)N1CCCC[C@H]1C(=O)O[C@H](CCc1ccc(OC)c(OC)c1)c1ccccc1OCC(=O)NCCCCCCOc1cccc2c1C(=O)N(C1CCC(=O)NC1=O)C2=O)c1cc(OC)c(OC)c(OC)c1 (some centres unmarked) [dTAG13]
degradation of the target SLC ([3]; HAP1, dTAG-HA SLC38A1, 0.5 µM, 16, 24 or 48 hours): Near-complete degradation
degradation of dTAG-HA SLC38A1 (antibodies against HA-tag and total protein) ([3]; HAP1 or 293T, PNGase de-glycosylated extracts): completely degraded

Cc1cc(-c2ccc(C(=O)NCCOCCOCCOCCOCCNc3cccc4c3C(=O)N(C3CCC(=O)NC3=O)C4=O)cc2N2CCC(c3[nH]cnc3C)CC2)ccc1F (centres unmarked) [d9A1-2]
abundance of exogenous SLC9A5 [4]: not significantly affected
degradation of exogenous SLC9A2 [5]: prompted degradation
degradation of exogenous SLC9A1 [6]: most efficient degradation
abundance of exogenous SLC9A6 [7]: not significantly affected
